Inhibition and IC50 data for 18 compounds are collected here from US20070299072A1, “KV1.5 POTASSIUM CHANNEL INHIBITORS” (Wyeth, priority 2006, published 2007).

Each structure is given as a SMILES string.

Type in all cases: cell-based
One series deals with T1, Kv1.5 (Homo sapiens, UniProt P22460).
T1 construct: expressed in transfected cells; host or cells: HEK or LTK- cells
Put plainly: Kv1.5 Patch Clamp EP (whole cell patch clamp; single point at 1 μM and IC50). Conditions: for inhibition at 1 µM: single point at 1.0 μM, Kv1.5 stably over expressed in HEK or LTK- cells; for IC50: concentration response. The procedure:
The external solution is standard Tyrodes solution. […] Inhibition was measured at the end of the 1 second pulses and expressed relative to controls. Initial Kv1.5 inhibition is estimated by single point determinations done at 1 μM.

The target in another series is T2, HERG (Homo sapiens, UniProt Q12809).
T2 construct: expressed in transfected cells; host or cells: HEK cells
T2 sequence (Q12809 whole entry): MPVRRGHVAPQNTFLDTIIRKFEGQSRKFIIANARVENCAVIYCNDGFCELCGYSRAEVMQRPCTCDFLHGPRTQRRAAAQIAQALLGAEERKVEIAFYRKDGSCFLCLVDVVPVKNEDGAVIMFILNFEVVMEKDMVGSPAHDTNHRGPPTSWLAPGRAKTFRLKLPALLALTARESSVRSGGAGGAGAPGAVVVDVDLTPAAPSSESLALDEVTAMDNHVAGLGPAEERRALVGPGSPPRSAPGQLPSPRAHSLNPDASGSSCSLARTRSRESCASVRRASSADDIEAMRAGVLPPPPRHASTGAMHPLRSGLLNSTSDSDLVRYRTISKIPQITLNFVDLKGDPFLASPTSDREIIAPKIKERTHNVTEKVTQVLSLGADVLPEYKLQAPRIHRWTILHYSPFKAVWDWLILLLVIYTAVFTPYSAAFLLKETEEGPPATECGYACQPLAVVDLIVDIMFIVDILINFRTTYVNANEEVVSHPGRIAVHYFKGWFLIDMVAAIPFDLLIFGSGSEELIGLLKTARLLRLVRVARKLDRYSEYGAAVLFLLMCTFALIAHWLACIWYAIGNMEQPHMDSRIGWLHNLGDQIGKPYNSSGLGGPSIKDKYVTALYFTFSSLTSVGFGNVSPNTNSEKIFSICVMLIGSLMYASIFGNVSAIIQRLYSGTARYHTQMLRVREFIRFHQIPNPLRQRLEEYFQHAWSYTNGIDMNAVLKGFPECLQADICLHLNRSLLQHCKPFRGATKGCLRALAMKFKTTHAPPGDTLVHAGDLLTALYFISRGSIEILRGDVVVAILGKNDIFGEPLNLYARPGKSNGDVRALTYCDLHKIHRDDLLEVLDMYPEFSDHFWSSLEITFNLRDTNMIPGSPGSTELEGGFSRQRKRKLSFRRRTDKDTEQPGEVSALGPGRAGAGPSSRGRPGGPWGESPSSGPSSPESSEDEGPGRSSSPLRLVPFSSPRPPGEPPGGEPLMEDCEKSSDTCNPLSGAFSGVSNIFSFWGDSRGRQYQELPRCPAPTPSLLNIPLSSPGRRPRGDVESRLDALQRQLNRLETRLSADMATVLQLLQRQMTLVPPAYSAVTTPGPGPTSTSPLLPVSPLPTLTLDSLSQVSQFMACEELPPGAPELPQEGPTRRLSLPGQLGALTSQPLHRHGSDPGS
As to the kind of experiment: HERG Patch Clamp EP (whole cell patch clamp, tail currents; single point at 10 μM and IC50). Conditions: for inhibition at 10 µM: human, HEK cells stably overexpressing HERG, single point at 10 μM, HERG in HEK cells, read-out: HERG % Inhib. @ 10 μM; for IC50: concentration response. An excerpt:
The external solution is standard Tyrodes solution.

In another series the test system is L-type calcium channels. As to the kind of experiment: FLIPR L-type Calcium Channel Assay (calcium influx in HL-1 cells after KCl). The settings on record: read-out: L-type Ca2+ IC50. The method, then:
HL-1 cells expressing endogenous L-type calcium channels are removed from culture flasks using trypsin, plated on fibronectin/gelatin-coated, clear-bottomed, black-walled 96-well microplates in Claycomb media (JRH Biosciences #51800) containing 10% fetal bovine serum, 4 mM L-glutamine, and 10 μM norepinephrine, and grown to confluency overnight. The next day, growth medium is aspirated from confluent cell monolayers and replaced with 100 μL per well Tyrode's solution (in mM: 130 NaCl, 4 KCl, 1.8 CaCl2, 1.0 MgCl2, 20 HEPES, 10 glucose, pH 7.35) and 50 μL per well FLIPR Calcium Assay kit, component A (#R-8033, Molecular Devices Corporation) and incubated for 60 min. in a 5% CO2 37° C. incubator. 50 μL per well test compounds are added to the plates and further incubated for 15 min. in a 5% CO2 37° C. incubator. All final solutions contain the anion exchange inhibitor, probenecid (2.5 mM). The 96-well plates are then placed in the center position of the FLIPR 1 (Fluorometric Imaging Plate Reader, Molecular Devices Corporation). Cell monolayers in each well are simultaneously illuminated at 488 nm with an Argon ion laser, and fluorescence emission is monitored using a 510-570 nm bandpass filter and a cooled CCD camera. To depolarize the plasma membrane and activate L-type calcium channels, 50 μL per well of 20 mM KCl (final concentration) are dispensed simultaneously to all 96 wells using the FLIPR's automatic 96-well pipettor. Fluorescence measurements are captured for 5 min. following KCl addition. Calcium influx, expressed as % control, is calculated for each concentration of test compound and concentration-response curves and IC50 values are generated using GraphPad Prism 4.0.

T1 sequence (P22460 whole entry): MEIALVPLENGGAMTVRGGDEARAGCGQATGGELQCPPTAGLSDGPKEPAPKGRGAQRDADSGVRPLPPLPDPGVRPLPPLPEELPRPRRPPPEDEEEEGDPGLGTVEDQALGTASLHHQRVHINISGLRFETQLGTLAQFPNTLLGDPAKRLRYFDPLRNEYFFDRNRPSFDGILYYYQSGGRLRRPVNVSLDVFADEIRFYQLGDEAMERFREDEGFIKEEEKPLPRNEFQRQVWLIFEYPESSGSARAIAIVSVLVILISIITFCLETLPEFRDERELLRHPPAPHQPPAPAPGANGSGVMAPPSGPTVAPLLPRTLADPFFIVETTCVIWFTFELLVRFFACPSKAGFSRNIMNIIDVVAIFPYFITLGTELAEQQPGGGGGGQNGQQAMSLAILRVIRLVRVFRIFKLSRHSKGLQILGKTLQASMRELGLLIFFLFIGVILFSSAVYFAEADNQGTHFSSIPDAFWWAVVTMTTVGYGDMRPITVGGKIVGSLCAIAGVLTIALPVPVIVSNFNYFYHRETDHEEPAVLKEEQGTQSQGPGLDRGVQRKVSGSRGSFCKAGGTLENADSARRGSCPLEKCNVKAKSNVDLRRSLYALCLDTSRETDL

Compound `COc1ccc(CCN2C(=O)C3(CCN(C(=O)C4CC4)CC3)N(C)C2c2ccc(OC(F)F)cc2)cc1` (stereo not shown) [Compound 6, 8-Cyclopropylcarbonyl-2-(4-difluoromethoxyphenyl)-3-[2-(4-methoxyphenyl)-ethyl]-1-methyl-1,3,8-triazaspiro[4.5]decan-4-one] returned an inhibition at 1 µM against Kv1.5 of 68%. Also, the inhibition at 10 µM on HERG was found to be 85%. In addition, the IC50 in the series on L-type calcium channels was 13 µM.

As for `CN1C(c2ccc(C3CC3)cc2)N(CCCc2ccccc2)C(=O)C12CCN(S(C)(=O)=O)CC2` (stereo not shown) [Compound 54, 2-(4-Cyclopropylphenyl)-8-methanesulfonyl-1-methyl-3-(3-phenylpropyl)-1,3,8-triazaspiro-[4.5]decan-4-one], on Kv1.5, half-maximal inhibition (IC50) was put at 0.266 µM and the inhibition at 1 µM came out at 88%. For the same compound, on HERG, 4.9 µM corresponded to half-maximal inhibition (IC50) and the inhibition at 10 µM turned out to be 53%. Besides, in the series on L-type calcium channels, the IC50 was 18 µM.

On Kv1.5, `CN1C(c2ccc(C3CC3)cc2)N(CCCc2ccccc2)C(=O)C12CCN(C(N)=O)CC2` (stereo not shown) [Compound 49, 2-(4-Cyclopropylphenyl)-1-methyl-4-oxo-3-(3-phenylpropyl)-1,3,8-triazaspiro-[4.5]decane-8-carboxylic acid amide] came in with an IC50 of 0.321 µM and an inhibition at 1 µM of 86%. Further, on HERG, the IC50 came out at 7.7 µM and the inhibition at 10 µM worked out at 67%. The IC50 with L-type calcium channels came out at 14 µM.

Consider `COc1ccc(CCN2C(=O)C3(CCN(C(=O)C4CC4)CC3)N(C)C2c2ccc(CC(C)C)cc2)cc1` (stereo not shown) [Compound 83, 8-(cyclopropylcarbonyl)-2-(4-isobutylphenyl)-3-[2-(4-methoxyphenyl)ethyl]-1-methyl-1,3,8-triazaspiro[4.5]decan-4-one], for which the inhibition at 1 µM at Kv1.5 stood at 93%. On HERG, the inhibition at 10 µM turned out to be 84%. Besides, in the series with L-type calcium channels, the IC50 came to 6.8 µM.

With `COc1ccc(CCN2C(=O)C3(CCN(C(=NC#N)Oc4ccccc4)CC3)N(C)C2c2ccc(OC)cc2)cc1` (stereo not shown) [Compound 67, 8-(phenyl-N-cyano-1-carbimidate)-2-(4-methoxyphenyl)-3-[2-(4-methoxyphenyl)ethyl]-1-methyl-1,3,8-triaza-spiro[4.5]decan-4-one], the inhibition at 1 µM against Kv1.5 came to 91%. For the same compound, the inhibition at 10 µM at HERG turned out to be 80%. Also, the IC50 with L-type calcium channels was determined as 10 µM.

In the case of `COc1ccc(CCN2C(=O)C3(CCN(S(C)(=O)=O)CC3)N(C(=O)C(F)(F)F)C2c2ccc(C3CC3)cc2)cc1` (stereo not shown) [Compound 92, 2-(4-cyclopropylphenyl)-3-[2-(4-methoxyphenyl)ethyl]-8-(methylsulfonyl)-1-(trifluoroacetyl)-1,3,8-triazaspiro[4.5]decan-4-one], the inhibition at 1 µM on Kv1.5 was determined as 81%. Further, the inhibition at 10 µM at HERG was found to be 73%. Besides, the IC50 with L-type calcium channels is 14 µM.

On Kv1.5, `COc1ccc(CCN2C(=O)C3(CCN(C(N)=NC#N)CC3)N(C)C2c2ccc(OC)cc2)cc1` (stereo not shown) [Compound 30, N′-cyano-2-(4-methoxyphenyl)-3-[2-(4-methoxyphenyl)ethyl]-1-methyl-4-oxo-1,3,8-triazaspiro[4.5]decane-8-carboximidamide] showed an IC50 of 0.166 µM and an inhibition at 1 µM of 93%. Also, at HERG, half-maximal inhibition (IC50) was put at 6 µM and the inhibition at 10 µM was 91%. In the series on L-type calcium channels, the IC50 was determined as 21 µM.

On to `COc1ccc(CCN2C(=O)C3(CCN(C(=O)NC4CCCC4)CC3)N(C)C2c2ccc(C3CC3)cc2)cc1` (stereo not shown) [Compound 20, 2-(4-Cyclopropylphenyl)-3-[2-(4-methoxyphenyl)ethyl]-1-methyl-4-oxo-1,3,8-triaza-spiro[4.5]decane-8-carboxylic acid cyclopentylamide], for which the IC50 was 0.186 µM at Kv1.5, 4 µM at HERG and 8 µM in the series with L-type calcium channels. On Kv1.5, the inhibition at 1 µM was determined as 93%. Besides, the inhibition at 10 µM on HERG came to 86%.

On Kv1.5, `COc1ccc(CCN2C(=O)C3(CCN(C(=O)C4CC4)CC3)N(C)C2c2ccc(C3CC3)cc2)cc1` (stereo not shown) [Compound 4, 8-Cyclopropylcarbonyl-2-(4-cyclopropylphenyl)-3-[2-(4-methoxyphenyl)ethyl]-1-methyl-1,3,8-triaza-spiro[4.5]decan-4-one] displayed an IC50 of 0.151 µM and an inhibition at 1 µM of 94%. Also, on HERG, the IC50 amounted to 9.5 µM and the inhibition at 10 µM is 64%. In addition, the IC50 in the series on L-type calcium channels amounted to 8 µM.

On Kv1.5, `COc1ccc(CCN2C(=O)C3(CCN(CC(=O)N(C)C)CC3)N(C)C2c2ccc(C3CC3)cc2)cc1` (stereo not shown) [Compound 89, 2-{2-(4-cyclopropylphenyl)-3-[2-(4-methoxyphenyl)ethyl]-1-methyl-4-oxo-1,3,8-triazaspiro[4.5]dec-8-yl}-N,N-dimethylacetamide] showed an IC50 of 0.273 µM and an inhibition at 1 µM of 94%. At HERG, the midpoint of inhibition, the IC50, lay at 12 µM and the inhibition at 10 µM came out at 43%. Also, the IC50 with L-type calcium channels amounted to 12 µM.

Take `CCOC(=O)N1CCC2(CC1)C(=O)N(CCc1ccc(OC)cc1)C(c1ccc(C3CC3)cc1)N2C` (stereo not shown) [Compound 35, Ethyl 2-(4-cyclopropylphenyl)-3-[2-(4-methoxyphenyl)ethyl]-1-methyl-4-oxo-1,3,8-triazaspiro[4.5]decane-8-carboxylate]: the inhibition at 1 µM on Kv1.5 worked out at 96%. Further, the inhibition at 10 µM on HERG stood at 65%. The IC50 in the series with L-type calcium channels amounted to 30 µM.

With `CCN(CC)c1ccc(C2N(CCc3ccc(OC)cc3)C(=O)C3(CCN(C(N)=O)CC3)N2C)cc1` (stereo not shown) [Compound 10, 2-[4-(Diethylamino)phenyl]-3-[2-(4-methoxyphenyl)ethyl]-1-methyl-4-oxo-1,3,8-triaza-spiro[4.5]decane-8-carboxylic acid amide], the inhibition at 1 µM at Kv1.5 came to 87%. Besides, the inhibition at 10 µM on HERG worked out at 5%. The IC50 in the series on L-type calcium channels is 12 µM.

As to `COc1ccc(CCN2C(=O)C3(CCN(C(=O)n4ccnc4)CC3)N(C)C2c2ccc(C3CC3)cc2)cc1` (stereo not shown) [Compound 91, 2-(4-cyclopropylphenyl)-8-(1H-imidazol-1-ylcarbonyl) —3-[2-(4-methoxyphenyl)ethyl]-1-methyl-1,3,8-triazaspiro[4.5]decan-4-one], the inhibition at 1 µM against Kv1.5 turned out to be 87%. The inhibition at 10 µM at HERG was determined as 72%. Also, the IC50 in the series on L-type calcium channels turned out to be 13 µM.

On Kv1.5, `CC(=O)N1CCC2(CC1)C(=O)N(CCCc1ccccc1)C(c1ccc(C3CC3)cc1)N2C` (stereo not shown) [Compound 44, 8-Acetyl-2-(4-cyclopropylphenyl)-3-(3-phenylpropyl)-1-methyl-1,3,8-triazaspiro-[4.5]decan-4-one] yielded an inhibition at 1 µM of 73%. Besides, the inhibition at 10 µM at HERG worked out at 61%. Besides, the IC50 with L-type calcium channels turned out to be 15 µM.

At Kv1.5, `CN1C(c2ccc(C3CC3)cc2)N(CCCc2ccccc2)C(=O)C12CCN(C(=O)C1CC1)CC2` (stereo not shown) [Compound 45, 8-Cyclopropanecarbonyl-2-(4-cyclopropylphenyl)-3-(3-phenylpropyl)-1-methyl-1,3,8-triazaspiro-[4.5]decan-4-one] registered an IC50 of 0.287 µM and an inhibition at 1 µM of 77%. Moreover, on HERG, 3.3 µM corresponded to half-maximal inhibition (IC50) and the inhibition at 10 µM came to 87%. The IC50 in the series with L-type calcium channels was 6.2 µM.

Take `COc1ccc(CCN2C(=O)C3(CCN(C(=O)NNC(=O)OC(C)(C)C)CC3)N(C)C2c2ccc(C3CC3)cc2)cc1` (stereo not shown) [Compound 29, tert-Butyl 2-({2-(4-cyclopropylphenyl)-3-[2-(4-methoxyphenyl)ethyl]-1-methyl-4-oxo-1,3,8-triazaspiro[4.5]dec-8-yl}carbonyl)hydrazine carboxylate]: the inhibition at 1 µM at Kv1.5 came to 83%. Also, on HERG, the inhibition at 10 µM was 31%. Moreover, the IC50 in the series with L-type calcium channels worked out at 8 µM.

At Kv1.5, `COc1ccc(CCN2C(=O)C3(CCN(C(N)=O)CC3)N(C)C2Cc2ccc(C(C)(C)C)cc2)cc1` (stereo not shown) [Compound 58, 2-(4-tert-Butylbenzyl)-3-[2-(4-methoxyphenyl)ethyl]-1-methyl-4-oxo-1,3,8-triazaspiro[4.5]decane-8-carboxylic acid amide] displayed an IC50 of 0.25 µM and an inhibition at 1 µM of 92%. Moreover, on HERG, the IC50 is 4.4 µM and the inhibition at 10 µM was 68%. Moreover, the IC50 in the series with L-type calcium channels worked out at 12 µM.

For the compound `COC(=O)N1CCC2(CC1)NC(c1ccc(C3CC3)cc1)N(CCc1ccc(OC)cc1)C2=O` (stereo not shown) [Compound 75, Methyl 2-(4-cyclopropylphenyl)-3-[2-(4-methoxyphenyl)ethyl]-4-oxo-1,3,8-triazaspiro[4.5]decane-8-carboxylate], on Kv1.5, the inhibition at 1 µM is 94%. For the same compound, the inhibition at 10 µM at HERG amounted to 2%. In addition, the IC50 with L-type calcium channels amounted to 19 µM.
